According to US20250074892A1, “CARBONYL BRIDGED HETEROCYCLIC COMPOUND, AND COMPOSITION AND APPLICATION THEREOF” (BEIJING SCITECH-MQ PHARMACEUTICALS LIMITED, priority 2022, published 2025):
Like-named read-outs stand apart in the source and are kept apart here.

Columns and labels:
[1] = Rat PK&BBB (pharmacokinetics and brain penetration); type: in vivo, SD rats
Method: (§1) In this assay, the pharmacokinetic characteristics and ability to penetrate the blood-brain barrier of the compounds of the present application were assayed after administration of some of the compounds of the present application to SD rats, CD-1 mice or beagle dogs by single oral administration and intravenous injection.
(§2) 1. Intravenous (IV) injection group: an appropriate amount of the assay compound was weighed, and completely dissolved in an appropriate volume of vehicle. The mixture was stirred, vortexed and/or sonicated. Once a solution was obtained, the vehicle was gradually added to a final volume to reach the target concentration. The solution was vortexed, and sonicated to obtain a homogeneous solution. The solution was filtered through a 0.22 m PVDF membrane.
as §2, with “2. Oral (PO)” for “1. Intravenous (IV) injection”, “solution.” for “solution. The solution was filtered through a 0.22 m PVDF membrane.”
(§3) Meanwhile, the IV group was not fasted and the PO group was fasted overnight (>12 hrs) and given food 2 hrs after drug administration. All animals had free access to water. The dosing regimen and pharmacokinetic sampling regimen are given in Table 10 and Table 11 below, respectively.
Rats were administered according to the above protocol, and blood and brain tissue samples were collected and processed at predetermined time points (collection and processing were performed according to conventional methods in the art).
(§4) The brain was weighed and homogenized by adding 4 times of ultrapure water. Six times volume of acetonitrile was added respectively to the whole blood samples and brain homogenate (20 times volume of acetonitrile was added to the whole blood sample of mouse PK). The mixture was vortexed for 1 min and then centrifuged at 4° C., 4500 rpm for 15 min. According to the instrument response, the supernatant was diluted with diluent and the sample was analyzed by LC/MS.
(§5) Pharmacokinetic parameters were calculated using WinNonlin software. The following pharmacokinetic parameters were calculated if appropriate plasma/whole blood drug concentration-time data were available: CL (clearance); Vd (apparent volume of distribution); T1/2 (elimination half-life time); Cmax (peak concentration); Tmax (time to peak); AUC (area under plasma drug concentration-time curve); MRT (mean retention time); F % (bioavailability).

HT29 cells = experiment: Inhibition of cell necrosis (CCK8 method), HT29 cells; type: cell-based, human; conditions: Homo sapiens, HT-29, 16 h, HT29, Human TNF-α/AT-406/Z-VAD-FMK, 16 hours, CCK8
How it was run: (§6)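 HT29 (1.2×10^4/well) and L929 (2.0×10^4/well) cells were pretreated 30 min with compound, 9-point 4-fold series from 10 μM in duplicate. Necrosis was induced with human TNF-α 20 ng/mL, AT-406 […] and Z-VAD-FMK 20 μM for 16 h (HT29), or murine TNF-α 20 ng/mL and Z-VAD-FMK 25 μM for 4-8 h (L929). CCK8 viability; IC50 from dose-effect curve.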

[2] = Beagle PK (pharmacokinetics); type: in vivo, beagle dogs; conditions: whole blood, Beagle dog
Method: as §1, §2
as §2, with “2. Oral (PO)” for “1. Intravenous (IV) injection”, “solution.” for “solution. The solution was filtered through a 0.22 m PVDF membrane.”
as §3, §4, §5

L929 cells = experiment: Inhibition of cell necrosis (CCK8 method), L929 cells; type: cell-based, mouse; conditions: Mus musculus, L929, L929, Murine TNF-α/Z-VAD-FMK, 4-8 hours, CCK8
How it was run: as §6

[3] = Sprague-Dawley, rat, whole blood, iv, 3 mg/kg, IV 3 mg/kg, read-out: Blood drug concentration
[4] = Sprague-Dawley, rat, whole blood, po, 30 mg/kg, PO 30 mg/kg, read-out: Blood drug concentration
[5] = IV 1 mg/kg, read-out: Blood drug concentration
[6] = PO 3 mg/kg, read-out: Blood drug concentration

O=C(C1CCN(c2cc(-c3cc(OCCCO)ccc3F)ccn2)CC1)N1N=CCC1c1cc(F)cc(F)c1 (racemic) [Example 18, (5-(3,5-difluorophenyl)-4,5-dihydro-1H-pyrazol-1-yl)(1-(4-(2-fluoro-5-(3-hydroxypropoxy)phenyl)pyridin-2-yl)piperidin-4-yl)methanone]
AUC(0-inf) ([1]; SD, whole blood, IV 3 mg/kg): 560 ± 62 ng·h/mL | AUC(0-t) ([1]; SD, whole blood, IV 3 mg/kg): 559 ± 62 ng·h/mL | Vd ([1]; SD, whole blood, IV 3 mg/kg): 8.24 ± 0.68 L/kg | half-life ([1]; SD, whole blood, IV 3 mg/kg): 1.06 ± 0.07 h | clearance ([1]; SD, whole blood, IV 3 mg/kg, read-out: Cl—obs): 90.1 ± 10.7 mL/min/kg | AUC(0-inf) ([1]; SD, whole blood, PO 30 mg/kg): 967 ± 285 ng·h/mL | AUC(0-t) ([1]; SD, whole blood, PO 30 mg/kg): 922 ± 357 ng·h/mL | Cmax ([1]; SD, whole blood, PO 30 mg/kg): 309 ± 103 ng/mL | Tmax ([1]; SD, whole blood, PO 30 mg/kg): 1 h | half-life ([1]; SD, whole blood, PO 30 mg/kg): 3.1 ± 0.24 h | bioavailability ([1]; SD, whole blood, PO 30 mg/kg vs IV 3 mg/kg): 17.3 ± 5.1% | Kp at 2 h ([1]; Sprague-Dawley, brain / whole blood, PO 30 mg/kg, 2 h after administration, read-out: Brain/blood ratio): 1.49 | concentration at 2 h ([1]; Sprague-Dawley, rat, brain, po, 30 mg/kg, PO 30 mg/kg, 2 h after administration, read-out: Brain concentration): 397 ng/g | concentration at 0 h [1, 3]: 0 ng/mL | concentration at 0.083 h ([1]; Sprague-Dawley, rat, whole blood, iv, 3 mg/kg, IV 3 mg/kg, 0.083 hr, read-out: Blood drug concentration): 1170 ± 149 ng/mL | concentration at 0.25 h [1, 3]: 571 ± 31 ng/mL | concentration at 0.5 h [1, 3]: 275 ± 24 ng/mL | concentration at 1 h [1, 3]: 94.7 ± 10.7 ng/mL | concentration at 2 h ([1]; Sprague-Dawley, rat, whole blood, iv, 3 mg/kg, IV 3 mg/kg, 2 hr, read-out: Blood drug concentration): 25.5 ± 4.7 ng/mL | concentration at 4 h [1, 3]: 4.13 ± 0.75 ng/mL | concentration at 7 h [1, 3]: 0.927 ± 0.301 ng/mL | concentration at 0 h [1, 4]: 0 ng/mL | concentration at 0.25 h [1, 4]: 85.6 ± 26.6 ng/mL | concentration at 0.5 h [1, 4]: 239 ± 47 ng/mL | concentration at 1 h [1, 4]: 309 ± 103 ng/mL | concentration at 2 h ([1]; Sprague-Dawley, rat, whole blood, po, 30 mg/kg, PO 30 mg/kg, 2 hr, read-out: Blood drug concentration): 165 ± 90 ng/mL | concentration at 4 h [1, 4]: 68.7 ± 31 ng/mL | concentration at 7 h [1, 4]: 23.5 ± 5.2 ng/mL | concentration at 24 h ([1]; Sprague-Dawley, rat, whole blood, po, 30 mg/kg, PO 30 mg/kg, 24 hr, read-out: Blood drug concentration): 0.557 ng/mL | concentration at 2 h ([1]; Sprague-Dawley, rat, whole blood, po, 30 mg/kg, PO 30 mg/kg, whole blood, 2 h after administration, read-out: Blood drug concentration): 266 ng/mL | IC50 (HT29 cells): ≤ 0.01 µM | AUC(0-inf) ([2]; IV 1 mg/kg): 699 ± 474 ng·h/mL | AUC(0-t) ([2]; IV 1 mg/kg): 682 ± 447 ng·h/mL | Vd ([2]; IV 1 mg/kg): 2.42 ± 0.54 L/kg | half-life ([2]; IV 1 mg/kg): 1.13 ± 0.65 h | concentration at 0 hr [2, 5]: 0 ng/mL | concentration at 0.083 hr ([2]; IV 1 mg/kg, 0.083 hr, read-out: Blood drug concentration): 843 ± 237 ng/mL | concentration at 0.25 hr [2, 5]: 575 ± 222 ng/mL | concentration at 0.5 h [2, 5]: 334 ± 229 ng/mL | concentration at 1 h [2, 5]: 170 ± 148 ng/mL | concentration at 2 h [2, 5]: 57.9 ± 63.2 ng/mL | concentration at 4 h [2, 5]: 26 ± 24.1 ng/mL | concentration at 7 h [2, 5]: 10 ng/mL | clearance ([2]; IV 1 mg/kg, read-out: Cl—obs): 31.4 ± 17.4 mL/min/kg | AUC(0-inf) ([2]; PO 3 mg/kg): 4240 ng·h/mL | AUC(0-t) ([2]; PO 3 mg/kg): 4210 ng·h/mL | Cmax ([2]; PO 3 mg/kg): 1460 ng/mL | Tmax ([2]; PO 3 mg/kg): 1 h | half-life ([2]; PO 3 mg/kg): 4.55 h | bioavailability ([2]; PO 3 mg/kg vs IV 1 mg/kg): 183% | concentration at 0 hr [2, 6]: 0 ng/mL | concentration at 0.25 hr [2, 6]: 469 ng/mL | concentration at 0.5 h [2, 6]: 1060 ng/mL | concentration at 1 h [2, 6]: 1460 ng/mL | concentration at 2 h [2, 6]: 932 ng/mL | concentration at 4 h [2, 6]: 138 ng/mL | concentration at 7 h [2, 6]: 82.4 ng/mL | concentration at 24 h ([2]; PO 3 mg/kg, 24 hr, read-out: Blood drug concentration): 4.41 ng/mL | IC50 (L929 cells): 0.05 to 0.1 µM
